Test results from patent EP1369114A1, “Use of tryptophan metabolites as pharmaceutical agents” (Terness, Peter, Priv. Doz. Dr., priority 2002, dated 2003).

Legend:
[1] = tested on: kynurenine-suppressed T cells; experiment: Polyclonal restimulation with Concanavalin A of T cells suppressed during anti-CD3 stimulation; format: cell-based, human; conditions: anti-CD3 plus kynurenine 2 days, washed, Con-A in the absence of kynurenine
Method: • (a) Allogeneic T-cell response. DCs were infected with recombinant IDO-adeno-GFP (DC-IDO-GFP), IDO-adeno (DC-IDO) or with control adenoviruses (DC-adeno) at a MOI (multiplicity of infection) up to 500 for 2 days. Lymphocytes (PBMCs) were separated from peripheral blood of healthy donors by density gradient centrifugation and typed for HLA antigens. Only HLA-DR-different responder lymphocytes were used for DC-induced stimulation. […] After 5 days, ^3[H]-thymidin was added for 12hrs and the number of counts (counts per minute = cpm) determined in a (3-counter (Inotech Biosystems, Lansing, MI). In order to verify whether IDO expression or adenovirus infection harm the DCs, 10^5 cells were infected with IDO-adeno-GFP, IDO-adenovirus, or adenovirus only at a stepwise decreasing MOI (500, 250, 125, ........ 3.9) and cell viability was measured in FACS following double staining with 7-AAD and anti-CD83 antibody-PE. The percentage of dead cells never exceeded 30% for any MOI following IDO-adeno-GFP- or IDO-adeno-infection and 40% following adenovirus(control)-infection. […] After 2 days, cell proliferation was assessed by measuring ^3[H]-thymidin incorporation (cpm) as described. • (c) Tryptophan metabolite titration curves. […] After 2 days, ^3[H] thymidin was added and the number of counts recorded. […] After another 2 days, ^3[H] thymidin was added and cpm determined. […]

[2] = tested on: T cells activated with allogeneic dendritic cells; experiment: Allogeneic restimulation, with donor-specific or third-party DCs, of T cells activated with allogeneic DCs; format: cell-based, human; parameters: restimulation with donor-specific DCs: dose or concentration left out as unconfirmed
From the text: • (a) Allogeneic T-cell response. DCs were infected with recombinant IDO-adeno-GFP (DC-IDO-GFP), IDO-adeno (DC-IDO) or with control adenoviruses (DC-adeno) at a MOI (multiplicity of infection) up to 500 for 2 days. Lymphocytes (PBMCs) were separated from peripheral blood of healthy donors by density gradient centrifugation and typed for HLA antigens. Only HLA-DR-different responder lymphocytes were used for DC-induced stimulation. Native DCs only, lymphocytes only, native DCs + allogeneic lymphocytes, DC-IDO-GFP + allogeneic lymphoytes, DC-IDO + allogeneic lymphoytes, DC-adeno + allogeneic lymphocytes (each time 10^5 DC + 10^5 lymphocytes in 0.2ml medium) were cultured in RPMI 1640 medium (Gibco BRL Life Technologies GmbH, Eggenstein, Germany) with 10% fetal calf serum (FCS) (final tryptophan concentration 5.25 mg/l = 25.69 uM) and Penicillin G/Streptomycin. After 5 days, ^3[H]-thymidin was added for 12hrs and the number of counts (counts per minute = cpm) determined in a (3-counter (Inotech Biosystems, Lansing, MI). In order to verify whether IDO expression or adenovirus infection harm the DCs, 10^5 cells were infected with IDO-adeno-GFP, IDO-adenovirus, or adenovirus only at a stepwise decreasing MOI (500, 250, 125, ........ 3.9) and cell viability was measured in FACS following double staining with 7-AAD and anti-CD83 antibody-PE. The percentage of dead cells never exceeded 30% for any MOI following IDO-adeno-GFP- or IDO-adeno-infection and 40% following adenovirus(control)-infection. Moreover, these values were not higher than those of native DCs cultured for the same period of time. […] After 2 days, cell proliferation was assessed by measuring ^3[H]-thymidin incorporation (cpm) as described. • (c) Tryptophan metabolite titration curves. […] After 2 days, ^3[H] thymidin was added and the number of counts recorded. […] After another 2 days, ^3[H] thymidin was added and cpm determined. […] 3[H] thymidin was added to all cultures and the number of counts (cpm) determined. • (e) Tryptophan titration curve. […]

## Nc1ccccc1C(=O)CC(N)C(=O)O (stereo not shown) [kynurenine]
[1]
  restimulation with Con-A after suppression: cannot be restimulated
[2]; extremely high doses (1500µM or 750µM) of kynurenine
  restimulation with third-party DCs: only minimal reactions
[2]; kynurenine in primary stimulation, 5 days, washed
  restimulation with donor-specific DCs: cannot be restimulated with DCs from the same donor
[2]; medium or low doses (375µM - 47µM) of kynurenine
  restimulation with third-party DCs: significant restimulation
